In brackets after ≈: the same amount, converted by molar mass. Activity calls are given as the source filed them. The calls are words filed in the database; no cut-off is given here.
Assays:
Prostaglandin E synthase [1] = biological target: T1, Prostaglandin E synthase (Canis lupus familiaris, UniProt A0SYQ0); assay: (§1) Inhibition of mPGES1 in LPS-induced dog whole blood assessed as suppression of PGE2 response pre-incubated for 30 mins followed by LPS addition and measured after 5 hrs by LC-MS/MS analysis; format: tissue-based
T1 sequence (A0SYQ0 whole entry): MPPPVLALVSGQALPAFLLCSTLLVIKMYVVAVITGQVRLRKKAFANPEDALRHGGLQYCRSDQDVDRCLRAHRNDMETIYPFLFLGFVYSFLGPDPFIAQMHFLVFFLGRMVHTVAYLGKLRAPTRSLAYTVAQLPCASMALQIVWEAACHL

[2] = biological target: T2, Prostaglandin E synthase (Canis lupus familiaris) (UniProt A0SYQ0); assay: as §1; format: tissue-based
T2 sequence (whole entry): T1 sequence (A0SYQ0 whole entry)

Plasma = assay: Plasma concentration in beagle dog at 2 mg/kg, po after; format: ADME, organism-based, Canis lupus familiaris; settings: in vivo
[3] = Oral bioavailability in beagle dog at 0.5 mg/kg after 0.25 to 24 hrs by LC-MS/MS analysis; format: ADME, organism-based, Canis lupus familiaris; settings: in vivo
[4] = Inhibition of rat microsomal PGES1 expressed in 293E cells by LC/MS/MS analysis; format: cell-based
[5] = biological target: Prostaglandin G/H synthase 1 (Homo sapiens) (UniProt P23219); assay: Inhibition of COX1 (unknown origin) at 100 uM
[6] = biological target: T3, Prostaglandin E synthase (Homo sapiens) (UniProt O14684); assay: (§2) Inhibition of mPGES1 in LPS-induced human whole blood assessed as suppression of PGE2 response after 20 to 24 hrs by LC-MS/MS analysis; format: tissue-based
T3 sequence (whole entry): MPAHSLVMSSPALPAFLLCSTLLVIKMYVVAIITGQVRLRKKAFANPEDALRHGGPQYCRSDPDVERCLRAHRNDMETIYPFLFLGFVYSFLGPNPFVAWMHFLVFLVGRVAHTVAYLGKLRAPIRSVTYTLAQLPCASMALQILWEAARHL

hERG [7] = biological target: T4, hERG (Homo sapiens, UniProt Q12809); assay: Inhibition of human ERG at 100 uM
hERG [8] = biological target: T4, hERG; assay: Inhibition of human ERG at 10 uM
[9] = biological target: T5, Cyclooxygenase (Homo sapiens) (UniProt P35354+P23219); assay: Inhibition of COX in human whole blood assessed as decrease in TXB2 production up to 30 uM; format: tissue-based
[10] = biological target: T5, Cyclooxygenase (Homo sapiens); assay: Inhibition of COX in human A549 cells assessed as reduction in PGE2 production at 10 uM; format: cell-based
Prostaglandin E synthase [11] = biological target: T6, Prostaglandin E synthase (Homo sapiens, UniProt O14684); assay: as §2; format: tissue-based
T6 sequence (O14684 whole entry): T3 sequence (whole entry)

Prostaglandin E synthase [12] = biological target: T6, Prostaglandin E synthase; assay: Inhibition of human microsomal PGES1 expressed in 293E cells by LC/MS/MS analysis; format: cell-based
Prostaglandin E synthase [13] = biological target: T6, Prostaglandin E synthase; assay: Inhibition of mPGES1 in rhIL-1beta-stimulated human A549 cells assessed as PGE2 level treated for 18 hrs after 30 mins pre-incubation with rhIL-1beta by EIA method; format: cell-based
[14] = Solubility of compound in FasSIF at 2 mg at room temperature after 24 hrs by HPLC analysis; format: physicochemical
CYP3A4 [15] = biological target: T7, CYP3A4 (Homo sapiens, UniProt P08684); assay: Inhibition of microsomal CYP3A4 (unknown origin) using bufuralol/midazolam/diclofinac as substrate assessed as 1-hydroxybufuralol maleate-d9/alpha-hydroxymidazolam-d4/[13C6]-4-hydroxydiclofinac formation at 10 uM pre-incubated for 10 mins before NADPH addition by LC-MS/MS analysis; format: ADME; settings: microsomes, probe bufuralol/midazolam/diclofinac
[16] = biological target: Voltage-gated inwardly rectifying potassium channel KCNH2 (Homo sapiens, UniProt Q12809); assay: Inhibition of human ERG
CYP3A4 [17] = biological target: T7, CYP3A4; assay: Time-dependent inhibition of microsomal CYP3A4 (unknown origin) using midazolam as substrate assessed as alpha-hydroxymidazolam-d4 at 10 uM pre-incubated for 12 mins before NADPH addition formation after 30 mins by LC-MS/MS analysis; format: ADME; settings: microsomes, probe midazolam
[18] = Plasma concentration in beagle dog at 2 mg/kg, po after 24 hrs by LC-MS/MS analysis; format: ADME, organism-based, Canis lupus familiaris
[19] = Oral bioavailability in beagle dog at 2 mg/kg after 0.25 to 24 hrs by LC-MS/MS analysis; format: ADME, organism-based, Canis lupus familiaris; settings: in vivo
[20] = biological target: T5, Cyclooxygenase (Homo sapiens); assay: Inhibition of COX in human whole blood assessed as decrease in TXB2 production; format: tissue-based
[21] = biological target: T5, Cyclooxygenase (Homo sapiens); assay: Inhibition of COX in human A549 cells assessed as reduction in PGE2 production; format: cell-based
[22] = biological target: T5, Cyclooxygenase (Homo sapiens); assay: Inhibition of COX in human whole blood assessed as decrease in PGF2alpha production; format: tissue-based
[23] = Stability of compound at 70 degC/75% RH; format: physicochemical
[24] = Stability of compound at 40 degC/75% RH; format: physicochemical
[25] = biological target: T8, Prostaglandin G/H synthase 2 (Homo sapiens) (UniProt P35354); assay: Inhibition of COX2 (unknown origin) at 30 uM
T8 sequence (whole entry): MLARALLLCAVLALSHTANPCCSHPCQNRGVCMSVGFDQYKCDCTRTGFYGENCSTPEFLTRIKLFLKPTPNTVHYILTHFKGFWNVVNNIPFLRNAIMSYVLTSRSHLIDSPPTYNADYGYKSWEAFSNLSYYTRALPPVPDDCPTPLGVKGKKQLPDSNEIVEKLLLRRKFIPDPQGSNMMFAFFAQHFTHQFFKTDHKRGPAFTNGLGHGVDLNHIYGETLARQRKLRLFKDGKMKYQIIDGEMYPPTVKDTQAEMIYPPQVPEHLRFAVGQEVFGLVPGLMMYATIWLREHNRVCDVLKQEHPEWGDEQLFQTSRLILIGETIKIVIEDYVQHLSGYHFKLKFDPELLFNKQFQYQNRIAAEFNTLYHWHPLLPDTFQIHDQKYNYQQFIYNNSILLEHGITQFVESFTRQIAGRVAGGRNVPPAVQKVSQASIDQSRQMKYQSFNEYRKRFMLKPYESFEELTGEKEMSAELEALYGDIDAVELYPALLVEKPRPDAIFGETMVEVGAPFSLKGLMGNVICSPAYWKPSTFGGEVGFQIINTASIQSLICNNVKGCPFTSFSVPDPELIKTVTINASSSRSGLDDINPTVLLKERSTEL

[26] = Volume of distribution at steady state in beagle dog at 2 mg/kg,po or 0.5 mg/kg, iv after 0.25 to 24 hrs by LC-MS/MS analysis; format: ADME, organism-based, Canis lupus familiaris; settings: in vivo, read-out: Vdss
[27] = Tmax in beagle dog at 2 mg/kg,po after 0.25 to 24 hrs by LC-MS/MS analysis; format: ADME, organism-based, Canis lupus familiaris; settings: in vivo
[28] = Clearance in beagle dog at 2 mg/kg,po or 0.5 mg/kg, iv after 0.25 to 24 hrs by LC-MS/MS analysis; format: ADME, organism-based, Canis lupus familiaris; settings: in vivo
[29] = biological target: Prostaglandin G/H synthase 1 (Homo sapiens) (UniProt P23219); assay: Inhibition of COX-1 (unknown origin) at 10 uM
[30] = biological target: T8, Prostaglandin G/H synthase 2 (Homo sapiens); assay: Inhibition of COX-2 (unknown origin) at 10 uM

T7 sequence (P08684 whole entry): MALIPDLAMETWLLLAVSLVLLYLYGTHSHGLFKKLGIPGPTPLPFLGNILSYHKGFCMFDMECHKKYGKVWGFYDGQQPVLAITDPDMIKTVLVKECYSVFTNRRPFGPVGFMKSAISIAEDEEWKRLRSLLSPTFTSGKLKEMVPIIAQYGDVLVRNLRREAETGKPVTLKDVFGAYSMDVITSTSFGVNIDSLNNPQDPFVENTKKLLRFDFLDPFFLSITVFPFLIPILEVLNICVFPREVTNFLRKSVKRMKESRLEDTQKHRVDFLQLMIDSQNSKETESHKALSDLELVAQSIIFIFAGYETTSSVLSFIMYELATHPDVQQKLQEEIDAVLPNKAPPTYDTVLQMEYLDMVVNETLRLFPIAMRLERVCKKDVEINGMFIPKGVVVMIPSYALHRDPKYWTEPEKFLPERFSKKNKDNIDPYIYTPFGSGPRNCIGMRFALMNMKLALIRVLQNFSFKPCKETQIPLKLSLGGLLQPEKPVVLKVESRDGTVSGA
T5 sequence (P23219 whole entry, looked up, one chain of several): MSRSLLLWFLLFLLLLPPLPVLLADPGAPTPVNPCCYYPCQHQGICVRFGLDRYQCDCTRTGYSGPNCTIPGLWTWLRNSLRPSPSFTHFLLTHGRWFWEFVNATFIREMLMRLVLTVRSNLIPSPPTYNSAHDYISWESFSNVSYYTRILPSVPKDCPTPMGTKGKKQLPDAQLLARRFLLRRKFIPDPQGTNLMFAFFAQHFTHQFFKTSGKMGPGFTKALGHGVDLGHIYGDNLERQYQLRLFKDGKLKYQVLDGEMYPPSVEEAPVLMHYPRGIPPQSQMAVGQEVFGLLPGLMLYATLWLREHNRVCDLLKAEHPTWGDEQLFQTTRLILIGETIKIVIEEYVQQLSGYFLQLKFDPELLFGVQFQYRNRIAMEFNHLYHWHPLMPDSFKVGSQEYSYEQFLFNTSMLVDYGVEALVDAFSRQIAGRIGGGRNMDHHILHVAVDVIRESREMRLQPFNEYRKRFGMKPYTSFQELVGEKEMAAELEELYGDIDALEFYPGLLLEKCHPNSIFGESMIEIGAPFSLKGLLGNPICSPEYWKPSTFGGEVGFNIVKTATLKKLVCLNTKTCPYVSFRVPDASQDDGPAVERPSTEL
T4 sequence (Q12809 whole entry): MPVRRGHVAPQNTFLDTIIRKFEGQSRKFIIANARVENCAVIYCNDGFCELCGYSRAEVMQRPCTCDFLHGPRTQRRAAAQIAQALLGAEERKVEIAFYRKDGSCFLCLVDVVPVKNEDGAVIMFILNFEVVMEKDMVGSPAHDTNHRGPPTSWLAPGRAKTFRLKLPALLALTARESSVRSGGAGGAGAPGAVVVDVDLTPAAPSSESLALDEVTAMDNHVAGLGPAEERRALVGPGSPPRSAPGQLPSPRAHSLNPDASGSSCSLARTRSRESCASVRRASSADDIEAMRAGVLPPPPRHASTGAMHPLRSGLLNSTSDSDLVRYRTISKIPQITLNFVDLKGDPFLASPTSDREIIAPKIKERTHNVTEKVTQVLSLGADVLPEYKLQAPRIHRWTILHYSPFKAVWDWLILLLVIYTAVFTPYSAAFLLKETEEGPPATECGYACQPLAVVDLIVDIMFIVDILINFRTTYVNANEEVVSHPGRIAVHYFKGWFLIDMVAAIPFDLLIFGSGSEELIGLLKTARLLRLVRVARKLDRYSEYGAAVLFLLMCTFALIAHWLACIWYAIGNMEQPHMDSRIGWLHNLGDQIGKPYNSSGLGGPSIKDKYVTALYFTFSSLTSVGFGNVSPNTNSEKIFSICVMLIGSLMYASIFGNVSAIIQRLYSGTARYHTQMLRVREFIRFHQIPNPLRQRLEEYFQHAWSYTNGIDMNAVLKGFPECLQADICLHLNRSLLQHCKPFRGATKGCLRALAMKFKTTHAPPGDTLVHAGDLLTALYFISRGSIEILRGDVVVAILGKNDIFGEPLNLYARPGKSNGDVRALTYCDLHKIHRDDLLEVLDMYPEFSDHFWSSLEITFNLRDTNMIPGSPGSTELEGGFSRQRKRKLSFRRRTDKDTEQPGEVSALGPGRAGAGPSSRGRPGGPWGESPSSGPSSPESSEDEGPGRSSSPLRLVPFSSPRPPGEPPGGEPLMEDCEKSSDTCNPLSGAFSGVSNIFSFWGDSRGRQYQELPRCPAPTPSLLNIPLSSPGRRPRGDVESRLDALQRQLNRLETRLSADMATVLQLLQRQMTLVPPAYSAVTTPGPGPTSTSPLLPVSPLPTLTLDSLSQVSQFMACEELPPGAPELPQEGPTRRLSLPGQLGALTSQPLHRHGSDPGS
Sequence of Voltage-gated inwardly rectifying potassium channel KCNH2 (Q12809 whole entry): as above
Sequence of Prostaglandin G/H synthase 1 (Homo sapiens) (P23219 whole entry): as the sequence (P23219 whole entry, looked up, one chain of several) above

| Compound | IC80 [6] [µM] | inhibition [9] | inhibition [10] | IC50 (Prostaglandin E synthase [11]) [µM] | IC50 (Prostaglandin E synthase [12]) [µM] | IC50 (Prostaglandin E synthase [13]) [µM] | inhibition at 10 µM (CYP3A4 [15]) [%] | inhibition at 0.5 h, 10 µM (CYP3A4 [17]) [%] | further results |
| --- | --- | --- | --- | --- | --- | --- | --- | --- | --- |
| CC(C)(C)C(=O)NCc1ccc(Cl)c(C(=O)Nc2ncc[nH]2)c1 [LY-3031207] | 2.44 | inactive | inactive |  |  |  |  |  | IC50 (Prostaglandin E synthase [1]): 0.555 µM; IC80 [2]: 1.84 µM; concentration (Plasma): > 1000 nM; bioavailability [3]: 60%; IC50 [4]: > 1000 µM; inhibition [5]: 9%; inhibition at 100 µM (hERG [7]): 14%; inhibition at 10 µM (hERG [8]): -4% |
| CC[C@H](C)C(=O)NCc1ccc(C(F)F)c(C(=O)Nc2ncc[nH]2)c1 | 21.1 | inactive | inactive | 10.5 | 1.12 | 8.86 |  |  |  |
| Cc1nc(NC(=O)c2cc(CNC(=O)C(C)C)cnc2C(F)F)[nH]c1-c1ccc(C(F)(F)F)cc1 [listing 1 of 2 here] |  |  |  |  | 0.0009 |  | 0 | 23 | IC50 (Prostaglandin E synthase [1]): 0.139 µM; solubility at 24 h [14]: 7 µg/mL (≈ 14.1 µM); IC50 [4]: 33.9 µM; IC50 [16]: 82.6 µM; Ki [16]: 41.3 µM; concentration at 24 h [18]: > 200 nM; bioavailability [19]: 37% |
| N#Cc1cccc(C#N)c1-c1nc2c3ccc(Cl)cc3c3ccccc3c2[nH]1 |  |  |  |  |  |  | 32 |  |  |
| CC(C)(C)C(=O)NCc1ccc(C(F)F)c(C(=O)Nc2ncc[nH]2)c1 | 33.7 | inactive | inactive | 1.43 | 0.676 | 3.25 |  |  |  |
| CC(C)C(=O)NCc1cnc(C(F)F)c(C(=O)Nc2ncc(-c3ccc(Cl)cc3)[nH]2)c1 | 0.146 |  |  | 0.029 | < 0.003 | 0.037 | 22 | 72 | inhibition [20]: inactive; inhibition [21]: inactive; inhibition [22]: inactive |
| Cc1cc(Cl)c(C(=O)Nc2ncc[nH]2)cc1CNC(=O)C(C)C | 132 | inactive | inactive | 13 | 2.32 | 8.85 |  |  |  |
| CCC(=O)NCc1cnc(C(F)F)c(C(=O)Nc2nc(C)c(-c3ccc(C(F)(F)F)cc3)[nH]2)c1 | 0.991 |  |  | 0.374 | 0.0103 | 0.098 | 0 | 15 |  |
| CCC(C)(C)C(=O)NCc1ccc(Cl)c(C(=O)Nc2ncc[nH]2)c1 | 9.37 | inactive | inactive | 0.853 | 0.385 | 1.23 |  |  |  |
| Cc1nc(NC(=O)c2cc(CNC(=O)C(C)C)cnc2C(F)F)[nH]c1-c1ccc(Cl)cc1 | 0.48 |  |  | 0.091 | < 0.003 | 0.039 | 0 | 27 |  |
| Cc1nc(NC(=O)c2cc(CNC(=O)C(C)C)cnc2C(F)F)[nH]c1-c1ccc(C(F)(F)F)cc1.O=P(O)(O)O |  |  |  |  |  |  |  |  | Stability [23]: 2 weeks; Stability [24]: 4 weeks |
| CC(C)(C)C(=O)NCc1ccc(Br)c(C(=O)Nc2ncc[nH]2)c1 |  | inactive | inactive |  |  |  |  |  |  |
| Cc1ccc(CNC(=O)C(C)(C)C)cc1C(=O)Nc1ncc[nH]1 | 9.08 | inactive | inactive | 2.43 | 3.11 | 4.62 |  |  | inhibition [25]: 16% |
| CC(C)C(=O)NCc1ccc(C(F)F)c(C(=O)Nc2ncc[nH]2)c1 | 31 | inactive | inactive | 4.61 | 2.46 | 3.15 |  | 20 | Vd [26]: 2.27 L/kg; Tmax [27]: 15 min; clearance [28]: 26.1 mL/min/kg; bioavailability [19]: 100% |
| Cc1c(CC(C)(C)C(=O)O)n(Cc2ccc(Cl)cc2)c2ccc(-c3ccc(-c4ccccc4)c(F)c3)cc12 |  |  |  |  |  |  | 46 |  |  |
| Cc1nc(NC(=O)c2cc(CNC(=O)C(C)C)cnc2C(F)F)[nH]c1-c1ccc(C(F)(F)F)cc1 [listing 2 of 2 here] | 0.069 |  |  |  |  |  |  |  | IC80 [2]: 0.703 µM; inhibition [29]: inactive; inhibition [30]: inactive |
| CC(C)C(=O)NCc1ccc(Cl)c(C(=O)Nc2ncc[nH]2)c1 | 8.8 | inactive | inactive |  |  |  |  |  |  |
| CC(=O)NCc1cnc(C(F)F)c(C(=O)Nc2nc(C)c(-c3ccc(C(F)(F)F)cc3)[nH]2)c1 |  |  |  |  | 0.074 | 0.72 | 19 | 8 |  |
| CC(C)C(=O)NCc1ccc(C(F)F)c(C(=O)Nc2ncc(-c3ccc(Cl)cc3)[nH]2)c1 | 0.994 |  |  | 0.338 | < 0.003 | 0.019 | 44 | 75 | inhibition [20]: inactive; inhibition [21]: inactive; inhibition [22]: inactive |
| CC(C)C(=O)NCc1cc(C(=O)Nc2ncc[nH]2)c(Cl)cc1F | 57.4 | inactive | inactive | 9.53 | 3.67 | > 10 |  |  |  |
| CC(C)(C)C(=O)NCc1ccc(C(F)(F)F)c(C(=O)Nc2ncc[nH]2)c1 | 10.5 | inactive | inactive | 2.14 | 1.08 | 3.23 |  |  |  |
